In ChEMBL document CHEMBL1122223, “New developments in Ca2+ channel antagonists” (J Med Chem, 1983):
Blank lines part the entries; values can stand above or below the compound they belong to.

Tests used:
Oryctolagus cuniculus [1] = organism: Oryctolagus cuniculus; assay: Inhibition of [Ca2+] uptake in rabbit aorta, K+.; assay type: functional; settings: read-out: ID50 (the source's name)
Oryctolagus cuniculus [2] = organism: Oryctolagus cuniculus; assay: Inhibition of contraction in rabbit aorta, K+.; assay type: functional; settings: read-out: ID50 (the source's name)
Rattus norvegicus [3] = organism: Rattus norvegicus; assay: Inhibition of [Ca2+] uptake in rat aorta, K+.; settings: read-out: ID50
Rattus norvegicus [4] = organism: Rattus norvegicus; assay: Inhibition of contraction in rat aorta, K+.; settings: read-out: ID50
Canis familiaris [5] = organism: Canis familiaris; assay: Antagonistic activity against norepinephrine induced contraction in canine coronary; assay type: functional, Canis lupus familiaris
Cavia porcellus [6] = organism: Cavia porcellus; assay: [Ca2+] antagonistic activity on contraction in guinea pig atria.; assay type: functional; settings: read-out: ID50 (the source's name)
Canis familiaris [7] = organism: Canis familiaris; assay: Antagonistic activity against K+ induced responses in canine coronary.; assay type: functional, Canis lupus familiaris
Felis catus [8] = organism: Felis catus; assay: [Ca2+] antagonistic activity on [Ca2+] current in cat papillary.; assay type: functional, Papillary muscle
Felis catus [9] = organism: Felis catus; assay: [Ca2+] antagonistic activity on [Ca2+] current in cat ventricular trabeculae; assay type: functional
Cavia porcellus [10] = organism: Cavia porcellus; assay: Antagonistic activity against K+ induced responses in guinea pig ileum.; assay type: functional; settings: read-out: ID50 (the source's name)
Cavia porcellus [11] = organism: Cavia porcellus; assay: Antagonistic activity against ACh in guinea pig ileum.; assay type: functional; settings: read-out: ID50 (the source's name)
Oryctolagus cuniculus [12] = organism: Oryctolagus cuniculus; assay: Antagonistic activity against 5-HT in rabbit saphenous; assay type: functional, Saphenous vein
Oryctolagus cuniculus [13] = organism: Oryctolagus cuniculus; assay: Antagonistic activity against 5-HT induced responses in rabbit basilar; assay type: functional
Oryctolagus cuniculus [14] = organism: Oryctolagus cuniculus; assay: Antagonistic activity against K+ induced responses in rabbit basilar.; assay type: functional
Oryctolagus cuniculus [15] = organism: Oryctolagus cuniculus; assay: Antagonistic activity against K+ induced responses in rabbit saphenous; assay type: functional, Saphenous vein
[16] = Dissociation constant for high affinity binding sites in intact cultured cardiac cells
[17] = Dissociation constant for low affinity binding sites in intact cultured cardiac cells
Cavia porcellus [18] = organism: Cavia porcellus; assay: [Ca2+] antagonistic activity on [Ca2+] current in guinea pig single ventricular cells; assay type: functional; settings: read-out: ID50 (the source's name)
PC-12 = assay: Ability to block depolarization induced 45Ca uptake into pheochromocytoma PC12 cells; assay type: functional, cell-based; settings: Rattus norvegicus
Rattus norvegicus [19] = organism: Rattus norvegicus; assay: Effective concentration for negative inotropic effect; assay type: functional, organism-based
[20] = Dissociation constant for binding to isolated membranes from clonal cell line
Canis familiaris [21] = organism: Canis familiaris; assay: Antagonistic activity against ACh induced responses in canine trachea; assay type: functional; settings: Canis lupus familiaris, read-out: ID50 (the source's name)
Canis familiaris [22] = organism: Canis familiaris; assay: Antagonistic activity against K+ induced responses in canine trachea.; assay type: functional; settings: Canis lupus familiaris, read-out: ID50 (the source's name)
Oryctolagus cuniculus [23] = organism: Oryctolagus cuniculus; assay: Inhibition of [Ca2+] uptake in rabbit pulmonary artery, K+.; assay type: functional; settings: read-out: ID50 (the source's name)
Oryctolagus cuniculus [24] = organism: Oryctolagus cuniculus; assay: Inhibition of contraction in rabbit pulmonary artery, K+.; assay type: functional; settings: read-out: ID50 (the source's name)
Oryctolagus cuniculus [25] = organism: Oryctolagus cuniculus; assay: Antagonistic activity against K+ induced responses in rabbit aorta; assay type: functional; settings: read-out: ID50 (the source's name)
Oryctolagus cuniculus [26] = organism: Oryctolagus cuniculus; assay: Antagonistic activity against norepinephrine (NE) induced responses in rabbit aorta; assay type: functional; settings: read-out: ID50 (the source's name)

SMILES: COc1ccc(CCN(C)CCCC(C#N)(c2cc(OC)c(OC)c(OC)c2)C(C)C)cc1OC (stereo not given) [GALLOPAMIL]
ID50 (Canis familiaris [5]): 0.5 µM
IC50 (Cavia porcellus [6]): < 1 µM
IC50 (Oryctolagus cuniculus [1]): 0.15 µM
IC50 (Oryctolagus cuniculus [2]): 0.2 µM
ID50 (Canis familiaris [7]): 0.2 µM

SMILES: COC(=O)C1=C(C)NC(C)=C(C(=O)OC)C1c1ccccc1[N+](=O)[O-] [NIFEDIPINE]
ID50 (Felis catus [8]): 0.6 µM
ID50 (Felis catus [9]): 0.6 µM
IC50 (Cavia porcellus [10]): 0.003 µM
IC50 (Cavia porcellus [6]): 1 µM
IC50 (Cavia porcellus [11]): 0.005 µM

SMILES: COCCOC(=O)C1=C(C)NC(C)=C(C(=O)OC(C)C)C1c1cccc([N+](=O)[O-])c1 (stereo not given) [NIMODIPINE]
ID50 (Oryctolagus cuniculus [12]): >0.0001 M
ID50 (Oryctolagus cuniculus [13]): 0.0007 µM
ID50 (Oryctolagus cuniculus [14]): 0.0002 µM
ID50 (Oryctolagus cuniculus [15]): 0.0003 µM

SMILES: COc1ccc(CCN(C)CCCC(C#N)(c2ccc(OC)c(OC)c2)C(C)C)cc1OC (stereo not given) [VERAPAMIL]
ID50 (Felis catus [9]): <10 µM
IC50 (Canis familiaris [21]): > 1000 µM
IC50 (Canis familiaris [22]): < 1000 µM
IC50 (Oryctolagus cuniculus [1]): 0.0068 µM
IC50 (Oryctolagus cuniculus [23]): 0.3 µM
IC50 (Oryctolagus cuniculus [2]): 0.17 µM
IC50 (Oryctolagus cuniculus [24]): 0.4 µM
IC50 (Oryctolagus cuniculus [25]): 0.03 µM
IC50 (Oryctolagus cuniculus [26]): 100 µM

Second part, led by results:

IC50 (Oryctolagus cuniculus [1]): 0.3 µM
IC50 (Oryctolagus cuniculus [2]): 0.5 µM
SMILES: COc1ccc([C@@H]2Sc3ccccc3N(CCN(C)C)C(=O)[C@@H]2OC(C)=O)cc1 [DILTIAZEM]

IC50 (Rattus norvegicus [3]): 0.18 µM
IC50 (Rattus norvegicus [4]): 0.22 µM
SMILES: Fc1ccc(C(c2ccc(F)cc2)N2CCN(C/C=C/c3ccccc3)CC2)cc1 [FLUNARIZINE]

IC50 (Oryctolagus cuniculus [1]): 0.001 µM
IC50 (Oryctolagus cuniculus [2]): 0.0019 µM
SMILES: COC(=O)C1=C(C)NC(C)=C(C(=O)OCCN(C)Cc2ccccc2)C1c1cccc([N+](=O)[O-])c1 (stereo not given) [NICARDIPINE]

IC50 (Cavia porcellus [18]): 0.2 µM
IC50 (PC-12): 0.01 µM
EC50 (Rattus norvegicus [19]): 0.028 µM
SMILES: CCOC(=O)C1=C(C)NC(C)=C(C(=O)OC)C1c1cccc([N+](=O)[O-])c1 (stereo not given) [NITRENDIPINE]
Kd [16]: 0.00026 µM
Kd [17]: 0.016 µM
Kd [20]: 0.01 µM
